Measured values as given in PubChem BioAssay (NCI).
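Cultured in 96-well plates, cells were exposed to test compound for 48 hours across five concentrations. GI50 marks 50% less growth. TGI is the concentration that stops growth completely.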

Assays:
Assay in all cases: growth of human tumour cells (NCI), 48 h
CCRF-CEM leukemia = system: CCRF-CEM leukemia
HL-60(TB) leukemia = system: HL-60(TB) leukemia
HS 578T breast = system: HS 578T breast
MALME-3M melanoma = system: MALME-3M melanoma
MCF7 breast = system: MCF7 breast
NCI-H460 lung = system: NCI-H460 lung
NCI/ADR-RES ovarian = system: NCI/ADR-RES ovarian
SF-539 CNS = system: SF-539 CNS
SK-MEL-28 melanoma = system: SK-MEL-28 melanoma
SR leukemia = system: SR leukemia

Row | Compound | GI50 (CCRF-CEM leukemia) [µM] | TGI (CCRF-CEM leukemia) [µM] | GI50 (HL-60(TB) leukemia) [µM] | TGI (HL-60(TB) leukemia) [µM] | GI50 (HS 578T breast) [µM] | TGI (HS 578T breast) [µM] | GI50 (MALME-3M melanoma) [µM] | TGI (MALME-3M melanoma) [µM] | GI50 (MCF7 breast) [µM] | TGI (MCF7 breast) [µM] | GI50 (NCI-H460 lung) [µM] | TGI (NCI-H460 lung) [µM] | GI50 (NCI/ADR-RES ovarian) [µM] | TGI (NCI/ADR-RES ovarian) [µM] | GI50 (SF-539 CNS) [µM] | TGI (SF-539 CNS) [µM] | GI50 (SK-MEL-28 melanoma) [µM] | TGI (SK-MEL-28 melanoma) [µM] | GI50 (SR leukemia) [µM] | TGI (SR leukemia) [µM]
1 | Oc1c(CN2CCOCC2)cc(COCc2ccccc2)c2cccnc12 | 0.494 | > 100 | 2.38 | 7.32 | 19.4 | > 100 | 2.84 | > 100 | 2.07 | > 100 | 0.756 | 53.3 | 0.287 | 1.88 | 2.24 | 11.5 | 2.79 | > 100 | 0.681 | 17.9
2 | Cc1cc(S(=O)(=O)Nc2nc3cc(Cl)ccc3o2)c(SCc2ccccc2)cc1Cl | 3.53 | 16.2 | – | – | 21 | 44.3 | 19.3 | 48.5 | 24.9 | 60.5 | 21.7 | 58.5 | 28.5 | 66.2 | 17.8 | 34.3 | 27.3 | 75.1 | 46 | > 100
3 | O=C(CCl)Nc1cc(O)c2c(c1)C(=O)c1cccc(O)c1C2=O | 0.314 | 3.24 | 2.44 | 6.08 | 2.46 | 10.6 | 0.897 | 2.58 | 0.725 | 2.61 | 1.79 | 3.92 | 2.47 | > 29.2 | 2.29 | 6.6 | 2.79 | 8.95 | 0.346 | 2.86
4 | CC(C)(C)C(=O)OCc1nc2cc3c(cc2c(=O)[nH]1)CCC3=O | > 100 | > 100 | > 100 | > 100 | > 100 | > 100 | > 100 | > 100 | > 100 | > 100 | > 100 | > 100 | > 100 | > 100 | > 100 | > 100 | > 100 | > 100 | – | –
5 | O=C(Nc1cccc(C(F)(F)F)c1)c1cc(Br)cc(Br)c1O | – | > 10 | – | 5 | – | > 10 | – | – | – | > 10 | – | > 10 | – | 6.78 | – | 9.15 | – | > 10 | – | > 10
6 | O=[N+]([O-])c1cc(F)c2cccnc2c1O | 3.46 | 26.7 | 2.48 | 8.12 | 35.8 | > 100 | 3.89 | 28.8 | 17.4 | 74.9 | 3.83 | 30.5 | 3.61 | 45.3 | 13.6 | > 100 | 21.2 | > 100 | 1.96 | 6.96
7 | O=S(=O)(O)ONC1=NCCN1 | 43.4 | > 100 | > 100 | > 100 | 26.9 | > 100 | > 100 | > 100 | 16.1 | > 100 | > 100 | > 100 | > 100 | > 100 | > 100 | > 100 | > 100 | > 100 | > 100 | > 100
8 | c1ccc2nc(OCCN3CC3)ccc2c1 | 4.4 | 60.5 | 6.59 | 34.9 | 20.3 | 62.2 | 16.6 | 43.6 | 3.4 | 11.4 | 4.21 | 20.9 | 18.1 | 44.5 | 21.5 | 47.1 | 14.5 | 29.2 | – | –
9 | O=c1c2c3c(sc2n2c(-c4ccc(Br)cc4)nnc2n1Cc1ccccc1)CCCC3 | 2.98 | 29.2 | 14.1 | 77.5 | 11.9 | 36.6 | 3.19 | 19.5 | 10.6 | 23.2 | 10.2 | 22.3 | 12.8 | 36 | 11.9 | 32.3 | 6.19 | 19.9 | 4.76 | 23.6
10 | CCCCCCNC(=O)Oc1ccc(/C(=C(\C)c2ccccc2)c2ccc(OCCN(CC)CC)cc2)cc1 | 2.22 | 11.6 | 0.524 | 5.2 | 2.92 | 11.7 | 3.59 | 10.1 | 0.602 | 5.47 | 1.4 | 3.62 | 5.47 | 11.9 | 3.47 | 9.79 | 3.12 | 9.3 | 1.09 | 3.18
11 | Cc1cc(O)c(C(c2ccncc2)c2c(O)cc(C)[nH]c2=O)c(=O)[nH]1 | – | > 100 | – | > 100 | – | > 100 | – | > 100 | – | > 100 | – | > 100 | – | > 100 | – | – | – | > 100 | – | > 100
12 | Cc1cc(O)cc2c1c(=O)c1ccccc1n2C | – | > 100 | – | > 100 | – | > 100 | – | – | – | > 100 | – | > 100 | – | > 100 | – | > 100 | – | – | – | > 100
13 | CC(=O)N1CCN(CCOc2ccc(C3CCN(C4=Nn5c(nnc5C(F)(F)F)CC4)CC3)cc2)CC1 | 20.4 | > 100 | 4.41 | 99.4 | 5.43 | > 100 | 9.89 | 99.6 | 4.3 | > 100 | 30.9 | > 100 | 37 | > 100 | 22.5 | > 100 | 21.4 | > 100 | – | –
